Key:
Globodera rostochiensis = assay: Critical concentration test, Globodera rostochiensis (potatoes in infested soil); assay type: in vivo; settings: active compound concentrations of 2.5, 5 and 10 ppm in soil; potato root cysts after six weeks; 18° C.
Experimental: Critical concentration test
Test nematode: Globodera rostochiensis
(§1) Solvent: 3 parts by weight of acetone
(§2) Emulsifier: 1 part by weight of alkylaryl polyglycol ether
The treated soil is filled into pots, potatoes are planted and the pots are kept at a greenhouse temperature of 18° C.

Meloidogyne incognita = assay: Critical concentration test/nematodes, Meloidogyne incognita (lettuce in infested soil); assay type: in vivo; settings: active compound concentration of 1.25 ppm-10 ppm in soil; lettuce root galls after four weeks; 27° C.
Experimental: Critical concentration test/nematodes
Test nematode: Meloidogyne incognita
as §1, §2
The treated soil is filled into pots, lettuce is sown and the pots are kept at a greenhouse temperature of 27° C.

LD50 on rats (oral) = settings: rat, in vivo, stomach tube, in polyethylene glycol Lutrol, read-out: LD50 (mg of active compound/kg of body weight)
Experimental: LD50 values on rats (oral)
The values were determined in the customary manner.

[1] = known from U.S. Pat. No. 2,978,479 and Pesticide Manual; cited from earlier work

SMILES | degree of effectiveness (Globodera rostochiensis) [%] | degree of effectiveness (Meloidogyne incognita) [%] | LD50 (LD50 on rats (oral)) [mg/kg] | insecticidal and nematicidal properties [1]
O=C(NC1(C(F)(F)F)CC1)c1c(F)cccc1F [Example 33] | 95 | 95 | – | –
CN(CC(F)(F)F)C(=O)c1c(F)cccc1F [Example 6] | – | 95 | – | –
O=C(NCC(F)(F)F)c1c(F)cccc1F [Example 5] | 95 | – | – | –
CCOP(=O)(NC(C)C)Oc1ccc(SC)c(C)c1 (stereo not drawn) [fenamiphos, O-ethyl-O-(3-methyl-4-methylthio-phenyl)-N-isopropyl-phosphoric acid ester-amide, reference compound] | – | 95 | 10 to 20 | very good
CC(NC(=O)c1c(F)cccc1F)C(F)(F)F (stereo not drawn) [Example 1, 2,6-difluorobenzoic acid N-(1,1,1-trifluoro-prop-2-yl)-amide] | 95 | 95 | – | –
CC(NC(=O)c1ccccc1Cl)C(F)(F)F (stereo not drawn) [Example 29] | 95 | 95 | – | –
CC(NC(=O)c1c(F)cccc1F)C(F)(F)F (stereo not drawn) [drawing 61] | – | – | > 1000 | –
